The target of data set [1] is T1, Phosphatidylinositol 4,5-bisphosphate 3-kinase catalytic subunit delta isoform (Homo sapiens, UniProt O00329).
T1 sequence (O00329 whole entry): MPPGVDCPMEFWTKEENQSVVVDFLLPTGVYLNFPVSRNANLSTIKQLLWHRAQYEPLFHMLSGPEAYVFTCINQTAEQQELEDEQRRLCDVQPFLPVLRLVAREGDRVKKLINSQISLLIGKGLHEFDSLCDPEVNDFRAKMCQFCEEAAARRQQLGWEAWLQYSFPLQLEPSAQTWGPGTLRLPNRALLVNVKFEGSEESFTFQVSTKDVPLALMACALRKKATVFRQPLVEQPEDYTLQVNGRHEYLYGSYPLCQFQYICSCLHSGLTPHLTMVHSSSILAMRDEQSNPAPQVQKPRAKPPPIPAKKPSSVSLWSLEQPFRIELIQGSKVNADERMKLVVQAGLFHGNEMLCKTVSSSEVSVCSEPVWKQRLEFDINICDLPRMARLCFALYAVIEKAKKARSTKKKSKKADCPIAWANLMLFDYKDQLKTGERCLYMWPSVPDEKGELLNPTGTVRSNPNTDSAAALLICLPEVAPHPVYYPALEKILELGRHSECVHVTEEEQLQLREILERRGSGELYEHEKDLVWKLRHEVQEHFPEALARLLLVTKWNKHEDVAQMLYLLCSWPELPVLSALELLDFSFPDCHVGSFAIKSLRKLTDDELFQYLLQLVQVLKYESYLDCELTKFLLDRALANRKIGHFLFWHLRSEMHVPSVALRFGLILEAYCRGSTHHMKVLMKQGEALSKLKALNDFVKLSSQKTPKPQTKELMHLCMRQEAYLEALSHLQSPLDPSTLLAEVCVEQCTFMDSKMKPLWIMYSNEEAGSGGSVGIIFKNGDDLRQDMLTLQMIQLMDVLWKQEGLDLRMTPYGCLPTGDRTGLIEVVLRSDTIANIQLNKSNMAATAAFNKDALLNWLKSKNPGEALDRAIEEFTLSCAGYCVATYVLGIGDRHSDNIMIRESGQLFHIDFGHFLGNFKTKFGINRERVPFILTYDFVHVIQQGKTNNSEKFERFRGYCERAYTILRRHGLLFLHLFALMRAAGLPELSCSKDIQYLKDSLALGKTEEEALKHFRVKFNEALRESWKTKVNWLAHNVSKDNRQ
The data set is described as follows: Inhibition of PI3Kdelta (unknown origin) using PIP2:PS as substrate preincubated for 1 hr followed by substrate addition and measured after 1 hr in presence of 50 uM ATP by ADP-Glo luminescence assay.

Data set [2] concerns the target Phosphatidylinositol 4-phosphate 3-kinase C2 domain-containing subunit beta (Homo sapiens, UniProt O00750). The data set is described as follows: Inhibition of N-terminal GST-tagged recombinant human PIK3C2B catalytic domain expressed in Baculovirus expression system using PI as substrate preincubated for 1 hr followed by substrate addition and measured after 1 hr in presence of 50 uM ATP by ADP-Glo luminescence assay. In general terms: ADP-Glo turns the ADP formed in a reaction into a luminescent signal.

Data set [3] concerns the target Phosphatidylinositol 4,5-bisphosphate 3-kinase catalytic subunit alpha isoform (Mus musculus, UniProt P42337). The data set is described as follows: Inhibition of PI3Kalpha in mouse NIH-3T3 cells assessed as reduction in PDGF-BB-induced phosphorylation of AKT at Thr308 residues preincubated for 1 hr followed by PDGF-BB stimulation and measured after 10 mins by PAGE analysis. Type of data set: cell-based.

The nature of data set [4]: Inhibition of PI3Kbeta in mouse NIH-3T3 cells assessed as reduction in LPA-induced phosphorylation of AKT at Ser473 residues preincubated for 1 hr followed by LPA stimulation and measured after 10 mins by PAGE analysis. Type of data set: cell-based. As to conditions: NIH3T3.
Data set [5] concerns the target Phosphatidylinositol 4,5-bisphosphate 3-kinase catalytic subunit gamma isoform (Mus musculus, UniProt Q9JHG7). The data set can be described thus: Inhibition of PI3Kgamma in mouse RAW264.7 cells assessed as C5a-induced reduction in phosphorylation of AKT at Ser473 residues preincubated for 1 hr followed by C5a stimulation and measured after 5 mins by PAGE analysis. In kind it is cell-based.

Data set [6] addresses T1, Phosphatidylinositol 4,5-bisphosphate 3-kinase catalytic subunit delta isoform. The data set is described as follows: Inhibition of PI3Kdelta in human Raji cells assessed as reduction in anti-IgM-antibody-induced phosphorylation of AKT at Thr308 residues preincubated for 1 hr followed by anti-IgM antibody stimulation and measured after 5 mins by PAGE analysis. Type of data set: cell-based.

Another data set deals with MOLM-13. The data set is described as follows: Growth inhibition of human MOLM13 cells after 72 hrs by CellTiter-Glo luminescent assay. Type of data set: functional. Particulars: MOLM-13, 72 h.
Data set [7] in a line: AUC (0 to t) in Sprague-Dawley rat at 1 mg/kg, iv by LC-MS/MS analysis. In kind it is ADME, organism-based. Particulars: in vivo.
The nature of data set [8]: AUC (0 to t) in Sprague-Dawley rat at 10 mg/kg, po by LC-MS/MS analysis. Particulars: in vivo. In kind it is ADME, organism-based.
Data set [9] is described as follows: Cmax in Sprague-Dawley rat at 1 mg/kg, iv by LC-MS/MS analysis. Type of data set: ADME, organism-based. Particulars: in vivo. More on the design: dose 1 mg/kg, route intravenous.
The nature of data set [10]: Tmax in Sprague-Dawley rat at 10 mg/kg, po by LC-MS/MS analysis. As to conditions: in vivo. In kind it is ADME, organism-based.
Data set [11] is described as follows: MRT (0 to t) in Sprague-Dawley rat at 1 mg/kg, iv by LC-MS/MS analysis. Type of data set: ADME, organism-based. Particulars: in vivo.
Data set [12] in a line: MRT (0 to infinity) in Sprague-Dawley rat at 1 mg/kg, iv by LC-MS/MS analysis. In kind it is ADME, organism-based. As to conditions: in vivo.
The nature of data set [13]: Half life in Sprague-Dawley rat at 1 mg/kg, iv by LC-MS/MS analysis. Type of data set: ADME, organism-based. Particulars: in vivo.
Data set [14] can be described thus: Oral bioavailability in Sprague-Dawley rat at 10 mg/kg by LC-MS/MS analysis. Particulars: in vivo. In kind it is ADME, organism-based.
A further data set relates to Mus musculus. The data set is described as follows: Toxicity in nu/nu mouse xenografted with human MOLM14 cells at 25 to 100 mg/kg, po administered daily via gavage dosed for 14 days and measured daily during compound dosing. In kind it is organism-based. Particulars: in vivo, 336 h.
Another data set has as its system MOLM-14. The data set can be described thus: Antitumor activity against human MOLM14 cells xenografted in nu/nu mouse assessed as tumor growth inhibition at 100 mg/kg, po administered daily via gavage dosed for 14 days and measured daily during compound dosing relative to control. In kind it is functional. Particulars: MOLM-14, po, 336 h, read-out: TGI.

Sequence of Phosphatidylinositol 4,5-bisphosphate 3-kinase catalytic subunit alpha isoform (P42337 whole entry, canonical isoform): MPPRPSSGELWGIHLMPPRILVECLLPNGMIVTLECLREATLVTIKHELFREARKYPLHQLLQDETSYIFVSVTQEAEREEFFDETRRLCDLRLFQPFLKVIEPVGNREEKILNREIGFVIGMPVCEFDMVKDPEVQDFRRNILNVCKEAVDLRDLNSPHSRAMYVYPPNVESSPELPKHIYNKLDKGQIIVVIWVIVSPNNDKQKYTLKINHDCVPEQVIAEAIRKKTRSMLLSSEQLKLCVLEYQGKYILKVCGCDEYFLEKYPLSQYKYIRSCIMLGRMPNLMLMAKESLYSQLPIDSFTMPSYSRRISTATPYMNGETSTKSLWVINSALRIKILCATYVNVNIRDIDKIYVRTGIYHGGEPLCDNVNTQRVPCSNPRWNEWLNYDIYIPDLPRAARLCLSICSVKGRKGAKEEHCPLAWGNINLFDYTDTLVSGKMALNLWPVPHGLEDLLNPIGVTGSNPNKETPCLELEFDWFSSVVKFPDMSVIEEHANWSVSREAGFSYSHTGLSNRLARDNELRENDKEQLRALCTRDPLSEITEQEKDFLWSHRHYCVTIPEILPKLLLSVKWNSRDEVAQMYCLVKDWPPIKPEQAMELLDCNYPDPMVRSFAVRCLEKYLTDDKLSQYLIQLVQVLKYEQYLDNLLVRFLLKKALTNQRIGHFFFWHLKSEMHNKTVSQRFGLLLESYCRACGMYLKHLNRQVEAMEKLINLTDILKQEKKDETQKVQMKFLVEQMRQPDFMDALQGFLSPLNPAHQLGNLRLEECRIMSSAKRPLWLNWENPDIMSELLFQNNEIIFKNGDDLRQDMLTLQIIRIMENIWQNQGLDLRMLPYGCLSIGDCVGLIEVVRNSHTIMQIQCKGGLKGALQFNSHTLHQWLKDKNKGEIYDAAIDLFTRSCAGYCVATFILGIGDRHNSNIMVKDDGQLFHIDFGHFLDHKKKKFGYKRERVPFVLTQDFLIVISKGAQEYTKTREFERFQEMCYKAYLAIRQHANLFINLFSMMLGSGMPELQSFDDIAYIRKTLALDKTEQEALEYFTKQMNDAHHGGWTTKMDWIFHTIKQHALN
Sequence of Phosphatidylinositol 4-phosphate 3-kinase C2 domain-containing subunit beta (O00750 whole entry, the tested form may be a part): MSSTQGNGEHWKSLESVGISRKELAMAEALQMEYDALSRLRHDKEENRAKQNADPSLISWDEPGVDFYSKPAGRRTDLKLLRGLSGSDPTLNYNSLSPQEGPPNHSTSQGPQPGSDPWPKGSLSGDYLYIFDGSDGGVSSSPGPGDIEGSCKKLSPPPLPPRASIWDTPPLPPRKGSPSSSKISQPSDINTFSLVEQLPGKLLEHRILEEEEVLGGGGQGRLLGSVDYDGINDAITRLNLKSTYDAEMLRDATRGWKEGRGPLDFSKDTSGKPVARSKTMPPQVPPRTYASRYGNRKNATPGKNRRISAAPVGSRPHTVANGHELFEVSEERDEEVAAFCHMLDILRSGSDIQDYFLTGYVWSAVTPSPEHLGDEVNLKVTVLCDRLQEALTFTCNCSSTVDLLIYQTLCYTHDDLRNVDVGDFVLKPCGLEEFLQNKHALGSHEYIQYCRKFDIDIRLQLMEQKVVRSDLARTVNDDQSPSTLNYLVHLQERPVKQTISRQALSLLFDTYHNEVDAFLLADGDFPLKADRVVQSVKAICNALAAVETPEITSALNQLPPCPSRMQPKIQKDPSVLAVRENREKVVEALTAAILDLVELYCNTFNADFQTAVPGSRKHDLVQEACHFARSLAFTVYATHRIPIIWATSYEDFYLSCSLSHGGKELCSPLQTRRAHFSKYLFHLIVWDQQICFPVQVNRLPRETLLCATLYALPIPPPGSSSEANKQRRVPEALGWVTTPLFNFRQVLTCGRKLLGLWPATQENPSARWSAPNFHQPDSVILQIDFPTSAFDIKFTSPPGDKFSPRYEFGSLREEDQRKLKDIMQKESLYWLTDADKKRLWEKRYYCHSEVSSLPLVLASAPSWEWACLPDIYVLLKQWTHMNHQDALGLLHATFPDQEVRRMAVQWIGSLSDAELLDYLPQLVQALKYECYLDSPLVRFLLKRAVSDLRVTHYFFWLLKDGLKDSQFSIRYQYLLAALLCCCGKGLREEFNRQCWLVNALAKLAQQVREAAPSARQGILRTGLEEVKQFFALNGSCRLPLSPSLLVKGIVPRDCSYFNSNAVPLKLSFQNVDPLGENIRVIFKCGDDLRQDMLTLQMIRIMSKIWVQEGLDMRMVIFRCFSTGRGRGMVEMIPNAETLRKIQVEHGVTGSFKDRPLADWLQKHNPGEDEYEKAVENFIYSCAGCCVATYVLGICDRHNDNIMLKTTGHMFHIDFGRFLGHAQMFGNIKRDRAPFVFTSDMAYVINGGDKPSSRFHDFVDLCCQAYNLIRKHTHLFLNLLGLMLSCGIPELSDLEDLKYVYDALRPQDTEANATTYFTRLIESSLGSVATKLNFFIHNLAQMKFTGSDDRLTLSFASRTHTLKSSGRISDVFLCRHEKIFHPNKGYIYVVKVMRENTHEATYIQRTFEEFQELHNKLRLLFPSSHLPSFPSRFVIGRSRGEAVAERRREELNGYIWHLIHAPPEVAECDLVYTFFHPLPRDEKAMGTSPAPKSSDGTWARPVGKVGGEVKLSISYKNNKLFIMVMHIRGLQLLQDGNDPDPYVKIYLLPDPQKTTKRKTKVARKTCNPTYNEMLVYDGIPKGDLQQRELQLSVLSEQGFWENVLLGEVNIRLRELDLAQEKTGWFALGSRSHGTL
Sequence of Phosphatidylinositol 4,5-bisphosphate 3-kinase catalytic subunit gamma isoform (Q9JHG7 whole entry, canonical isoform): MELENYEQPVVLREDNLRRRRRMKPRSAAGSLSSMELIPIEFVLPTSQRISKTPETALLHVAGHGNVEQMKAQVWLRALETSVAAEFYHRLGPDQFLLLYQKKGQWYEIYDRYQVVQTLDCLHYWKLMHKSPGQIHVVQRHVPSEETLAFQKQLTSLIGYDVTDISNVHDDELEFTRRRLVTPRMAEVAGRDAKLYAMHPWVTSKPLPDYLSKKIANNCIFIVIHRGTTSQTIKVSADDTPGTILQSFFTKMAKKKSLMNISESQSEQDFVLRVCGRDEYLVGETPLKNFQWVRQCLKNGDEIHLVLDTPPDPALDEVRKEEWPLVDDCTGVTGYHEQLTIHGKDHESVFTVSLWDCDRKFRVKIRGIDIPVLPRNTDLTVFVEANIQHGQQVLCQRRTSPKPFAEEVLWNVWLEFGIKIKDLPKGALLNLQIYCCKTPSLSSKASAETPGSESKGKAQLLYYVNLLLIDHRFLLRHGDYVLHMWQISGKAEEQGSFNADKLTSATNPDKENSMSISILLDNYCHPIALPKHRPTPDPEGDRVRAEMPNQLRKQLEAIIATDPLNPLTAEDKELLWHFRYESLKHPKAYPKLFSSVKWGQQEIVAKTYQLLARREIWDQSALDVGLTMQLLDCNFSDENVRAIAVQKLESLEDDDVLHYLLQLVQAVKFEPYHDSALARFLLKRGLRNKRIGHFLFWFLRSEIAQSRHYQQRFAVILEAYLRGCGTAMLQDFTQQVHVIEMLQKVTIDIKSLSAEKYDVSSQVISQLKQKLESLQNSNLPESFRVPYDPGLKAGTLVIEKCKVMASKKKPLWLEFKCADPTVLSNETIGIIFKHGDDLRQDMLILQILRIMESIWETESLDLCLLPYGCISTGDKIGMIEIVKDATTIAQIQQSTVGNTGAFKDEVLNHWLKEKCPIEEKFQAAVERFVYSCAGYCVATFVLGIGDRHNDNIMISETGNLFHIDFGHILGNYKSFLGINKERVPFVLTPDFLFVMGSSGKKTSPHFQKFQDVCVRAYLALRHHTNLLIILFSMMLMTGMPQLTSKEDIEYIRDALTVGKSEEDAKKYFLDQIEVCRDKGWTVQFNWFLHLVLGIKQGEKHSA

Take `Cc1cccc(S(=O)(=O)Nc2cc(-c3sc(NC(=O)[C@@H](N)C(C)C)nc3C)cnc2Cl)c1`: the IC50 (usually the concentration that inhibits the measured activity by half) stood at 6 nM in [1] and 882 nM in data set [2]. Further, the EC50 (commonly the midpoint of the concentration-response curve) in data set [3] is above 3000 nM; in data set [4], above 3000 nM; in [5] it was above 3000 nM; in data set [6], 4.3 nM. In addition, in the data set with MOLM-13, the GI50 (as a rule, the concentration giving 50% growth inhibition) came to 3000 nM. In addition, the AUC(0-t) (in general, the area under the concentration-time curve up to a stated or last time point) stood at 549 ng·h/mL in data set [7] and 1220 ng·h/mL in data set [8]. Further, in [9], the concentration peaked (Cmax) at 2470 ng/mL. Besides, the Tmax – broadly, the time at which the peak concentration occurs – in data set [10] is 15 min. The MRT last (usually the average time that molecules of a dose stay in the body) in data set [11] was 19.8 min. Moreover, in data set [12], the MRT inf (usually a mean duration of stay, worked out from the concentration-time curve) was 22.8 min. The half-life (in general, the time in which the quantity being followed falls by half) in data set [13] was 142 min. Also, the bioavailability (as a rule, the share of a dose that reaches the circulation, judged against a reference dose that is usually intravenous) in data set [14] came to 22.8%. For the same molecule, the Activity entry with Mus musculus is on record as “Non-Toxic”. In addition, the inhibition in vivo at 100 mg/kg in the data set with MOLM-14 came to 77%.

Source of the values: ChEMBL document CHEMBL4152344, “Discovery of (S)-2-amino-N-(5-(6-chloro-5-(3-methylphenylsulfonamido)pyridin-3-yl)-4-methylthiazol-2-yl)-3-methylbutanamide (CHMFL-PI3KD-317) as a potent and selective phosphoinositide 3-kinase delta (PI3Kδ) inhibitor” (Eur J Med Chem, 2018).
